Laboratory results as given in the supplement of paper PMC10307832.

Tests used:
Test in all cases: relative viability (nuclei count vs DMSO), 5 days (fraction); higher = more cells survive
Serdemetan + OSI-027 = compound: c1ccc2c(CCNc3ccc(Nc4ccncc4)cc3)c[nH]c2c1 [Serdemetan] + COc1cccc2cc(-c3nc([C@H]4CC[C@H](C(=O)O)CC4)n4ncnc(N)c34)[nH]c12 [OSI-027] (partner 0.5 µM)
In short: (§1)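 After 5 days of treatment, lung cancer cells in 1536-well plates were fixed and stained in a single step (final 0.05% Triton X-100, 1% formaldehyde, 1 ug/ml Hoechst) and their nuclei counted on 4× images. Treatment had been applied by pin tool the day after seeding as one drug alone or as a fixed anchor-drug dose with five library-drug doses (not always all listed) in √10 steps. Relative viability is the nuclei count of treated wells divided by that of vehicle wells, and values are medians of duplicate plates.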

Serdemetan + Vorinostat = compound: c1ccc2c(CCNc3ccc(Nc4ccncc4)cc3)c[nH]c2c1 [Serdemetan] + O=C(CCCCCCC(=O)Nc1ccccc1)NO [Vorinostat] (partner 1 µM)
In short: as §1

Serdemetan + Linsitinib = compound: c1ccc2c(CCNc3ccc(Nc4ccncc4)cc3)c[nH]c2c1 [Serdemetan] + C[C@]1(O)C[C@@H](c2nc(-c3ccc4ccc(-c5ccccc5)nc4c3)c3c(N)nccn32)C1 [Linsitinib] (partner 1 µM)
In short: as §1

Serdemetan + Alpelisib = compound: c1ccc2c(CCNc3ccc(Nc4ccncc4)cc3)c[nH]c2c1 [Serdemetan] + Cc1nc(NC(=O)N2CCC[C@H]2C(N)=O)sc1-c1ccnc(C(C)(C)C(F)(F)F)c1 [Alpelisib] (partner 2 µM)
In short: as §1

| Cell Line | relative viability (Serdemetan + OSI-027; first compound 0.04 µM) | relative viability (Serdemetan + OSI-027; first compound 0.1265 µM) | relative viability (Serdemetan + OSI-027; first compound 0.4 µM) | relative viability (Serdemetan + OSI-027; first compound 1.265 µM) | relative viability (Serdemetan + OSI-027; first compound 4 µM) | relative viability (Serdemetan + Vorinostat; first compound 0.04 µM) | relative viability (Serdemetan + Vorinostat; first compound 0.1265 µM) | relative viability (Serdemetan + Vorinostat; first compound 0.4 µM) | relative viability (Serdemetan + Vorinostat; first compound 1.265 µM) | relative viability (Serdemetan + Vorinostat; first compound 4 µM) | relative viability (Serdemetan + Linsitinib; first compound 0.04 µM) | relative viability (Serdemetan + Linsitinib; first compound 0.1265 µM) | relative viability (Serdemetan + Linsitinib; first compound 0.4 µM) | relative viability (Serdemetan + Linsitinib; first compound 1.265 µM) | relative viability (Serdemetan + Linsitinib; first compound 4 µM) | relative viability (Serdemetan + Alpelisib; first compound 0.04 µM) | relative viability (Serdemetan + Alpelisib; first compound 0.1265 µM) | relative viability (Serdemetan + Alpelisib; first compound 0.4 µM) | relative viability (Serdemetan + Alpelisib; first compound 1.265 µM) | relative viability (Serdemetan + Alpelisib; first compound 4 µM) |
| --- | --- | --- | --- | --- | --- | --- | --- | --- | --- | --- | --- | --- | --- | --- | --- | --- | --- | --- | --- | --- |
| NCI-H1650 | 0.664 | 0.701 | 0.412 | 0.532 | 0.473 | 0.406 | 0.663 | 0.518 | 0.291 | 0.42 |  |  |  |  |  |  |  |  |  |  |
| BEN | 0.307 | 0.292 | 0.272 |  | 0.286 | 0.603 | 0.54 | 0.688 | 0.615 | 0.514 | 0.857 | 0.929 | 0.956 | 0.875 | 0.679 | 0.929 | 1.02 | 0.987 | 0.99 | 0.824 |
| EMC-BAC-2 | 0.368 | 0.383 | 0.392 | 0.268 | 0.355 | 0.463 | 0.471 | 0.495 | 0.379 | 0.399 | 0.802 | 0.753 | 0.787 | 0.755 | 0.613 | 0.727 | 0.712 | 0.727 | 0.662 | 0.548 |
| LU99A | 0.282 | 0.313 | 0.275 | 0.216 | 0.29 | 0.535 | 0.459 | 0.379 | 0.211 | 0.249 | 0.501 | 0.481 | 0.421 | 0.158 | 0.162 | 0.516 | 0.576 | 0.342 | 0.175 | 0.17 |
| ABC-1 | 0.459 | 0.488 | 0.486 | 0.296 | 0.265 | 0.985 | 0.949 | 0.989 | 0.832 | 0.787 | 0.85 | 0.87 | 0.738 | 0.6 | 0.489 | 1.16 | 1.14 | 0.965 | 0.812 | 0.486 |
| NCI-H2170 | 0.686 | 0.737 | 0.635 | 0.367 | 0.73 | 0.828 | 0.834 | 0.806 | 0.733 | 0.876 |  |  |  |  |  | 0.776 | 0.854 | 0.833 | 0.721 | 0.811 |
| NCI-H1299 |  |  |  |  |  |  |  |  |  |  | 0.923 | 0.999 | 0.969 | 0.777 | 0.669 | 0.992 | 0.996 | 1.03 | 0.96 | 0.968 |
| EBC-1 |  |  |  |  |  |  |  |  |  |  | 0.807 | 0.904 | 0.952 | 0.794 | 0.634 | 0.739 | 0.865 | 0.752 | 0.793 | 0.623 |
| NCI-H2347 | 0.412 | 0.501 | 0.431 | 0.4 | 0.258 | 0.648 | 0.53 | 0.703 | 0.334 | 0.414 | 0.753 | 0.965 | 0.959 | 0.666 | 0.679 | 0.936 | 1.02 | 1.01 | 0.866 | 0.703 |
| NCI-H1993 | 0.552 | 0.614 | 0.665 | 0.521 | 0.533 | 0.935 | 0.609 | 0.669 | 0.767 | 0.782 | 0.688 | 0.648 | 0.677 |  | 0.713 | 0.715 | 0.802 | 0.621 |  | 0.67 |
| NCI-H322M | 0.52 | 0.56 | 0.681 | 0.509 | 0.422 | 0.798 | 0.906 | 0.857 | 0.806 | 0.854 | 0.923 | 0.955 | 0.827 | 0.863 | 0.836 | 0.853 | 0.875 | 0.838 | 0.755 | 0.75 |
| NCI-H838 | 0.434 | 0.416 | 0.461 | 0.387 | 0.463 | 0.729 | 0.69 | 0.684 | 0.728 | 0.696 | 0.995 | 1.04 | 0.961 | 0.989 | 1.17 | 0.994 | 0.953 | 0.995 | 0.962 | 1.13 |
| HARA | 0.528 | 0.703 | 0.395 | 0.274 | 0.304 | 0.527 | 0.565 | 0.492 | 0.483 | 0.274 | 0.948 | 0.865 | 0.854 |  | 0.441 | 0.783 | 0.819 | 0.741 |  | 0.391 |
| NCI-H2342 | 0.66 | 0.648 | 0.731 | 0.666 | 0.512 | 0.705 | 0.731 | 1.07 | 0.908 | 0.478 |  |  |  |  |  |  |  |  |  |  |
| NCI-H1792 | 0.752 | 0.718 | 0.677 | 0.42 | 0.426 |  |  |  |  |  | 0.565 | 0.527 | 0.557 | 0.378 | 0.231 | 0.697 | 0.686 | 0.567 | 0.529 | 0.257 |
| ChaGo-K-1 | 0.546 | 0.611 | 0.539 | 0.33 | 0.367 | 0.741 | 0.697 | 0.77 | 0.329 | 0.331 |  |  |  |  |  |  |  |  |  |  |
| A549 |  |  |  |  |  |  |  |  |  |  | 0.595 | 0.578 | 0.631 | 0.42 | 0.179 | 0.753 | 0.722 | 0.727 | 0.569 | 0.252 |
| NCI-H1563 | 0.747 | 0.74 | 0.732 | 0.62 | 0.614 |  |  |  |  |  | 1.13 | 1.03 | 0.94 | 1.06 | 0.759 | 0.89 | 0.893 | 0.931 | 0.815 | 0.763 |
| SW 900 | 0.757 | 0.602 | 0.632 | 0.381 | 0.37 | 0.485 | 0.569 | 0.53 | 0.393 | 0.455 |  |  |  |  |  |  |  |  |  |  |
| IA-LM |  |  |  |  |  | 1.05 | 0.964 | 0.9 | 0.81 | 0.419 | 0.549 | 0.679 | 0.537 | 0.394 | 0.388 | 0.726 | 0.834 | 0.729 | 0.535 | 0.568 |
| NCI-H1703 |  |  |  |  |  |  |  |  |  |  | 0.515 | 1.04 | 0.765 | 0.654 | 0.608 | 0.389 | 0.345 | 0.306 | 0.277 | 0.374 |
| NCI-H1648 |  | 0.255 | 0.335 | 0.195 | 0.256 |  | 0.552 | 0.329 | 0.398 | 0.252 |  |  |  |  |  |  |  |  |  |  |
